This is an account of results in paper PMC11394742, “Discovery of Indole–Thiourea Derivatives as Tyrosinase Inhibitors: Synthesis, Biological Evaluation, Kinetic Studies, and In Silico Analysis” (International Journal of Molecular Sciences, 2024).

The IC50 is the concentration that inhibits the measured activity by half. Broadly, the Ki is a measure of affinity in units of concentration, obtained from inhibition or displacement. Read a high Ki as lower affinity. One may read the Vmax as the rate approached at saturating substrate. One may read the melting point as the temperature, or range, at which the solid turns liquid.

Data set [1] in a line: DPPH free radical-scavenging assay. Particulars: 0.2 mM DPPH in EtOH, 15 min, room temperature, 515 nm; read-out: SC50 ± SD (DPPH radical scavenging). The protocol: The DPPH radical-scavenging activity was evaluated using Blois’ method. A 0.2 mM solution of DPPH in ethanol (EtOH) was prepared as the working reagent. Each sample (20 μL) was introduced into a 96-well plate, followed by the addition of 180 μL of the DPPH solution. […] The SC50 value, representing the concentration required to scavenge 50% of the DPPH radicals, was determined for each sample. Each measurement was performed in triplicate, and the mean value was reported. Ascorbic acid served as the positive control throughout the experiment.
On the technique in general: DPPH is a stable violet radical that fades when it is reduced.

The target in another data set is T1, mushroom tyrosinase (Agaricus bisporus, UniProt C7FF04).
T1 construct: purchased Sigma Chemicals (St. Louis, MO, USA)
In words: Tyrosinase inhibition assay. Type of data set: biochemical. Particulars: L-tyrosine substrate, 37 °C 10 min, absorbance 490 nm; mean ± SEM. On the procedure:
In the enzymatic assay, a reaction mixture was prepared containing 0.1 M potassium phosphate buffer (pH 6.8), 2 mM L-tyrosine, and 2500 units of tyrosinase. Samples at various concentrations were dispensed as 20 µL aliquots into a 96-well plate. Each well received 130 µL of substrate solution (buffer and L-tyrosine), followed by 5 µL of tyrosinase and 45 µL of buffer solution.

A short description of data set [2]: Stability in aqueous solution (HPLC main peak area). Format: physicochemical. Particulars: room temperature, 275 nm. On the procedure: Table S1. Gradient elution of the mobile phase for the synthetic compounds using HPLC.
The mobile phase consisted of Solution A (0.1% acetic acid in water) and Solvent B
(acetonitrile), with gradient elution employed throughout the analysis. The flow rate was
Time Solution (A) % Solution (B) %
Table S2. The stability of the synthesized compounds in aqueous solution.
Each compound (2.0 mg) was dissolved in an appropriate volume of water to achieve
an approximate concentration of 1-2 mg/mL. The solutions were then subjected to
ultrasonic treatment, filtered, and analyzed. During stability testing, varying degrees of
To facilitate analysis, these
samples were reconstituted with additional water or treated ultrasonically, filtered, and
absorption at approximately 275 nm, which was selected for detection. The integration
method employed was based on the minimum area approach to accurately determine the
retention time (min) and main peak area (%) of all synthesized compounds. The prepared
samples were stored at room temperature, and their stability in aqueous solution was
evaluated at 0, 2, 4 days, and 2 months using the aforementioned analytical method.
Compounds 0 day 2 day 4 days 2 months RT Area RT Area RT Area RT Area

In another data set the target is T2, mTYR (Agaricus bisporus, UniProt C7FF04).
T2 construct: purchased Sigma Chemicals (St. Louis, MO, USA)
Briefly: Kinetic mechanism analysis (Lineweaver–Burk plots). Format: biochemical, mushroom. On the procedure: Due to the potent inhibition of mushroom tyrosinase by compound 4b, kinetic studies were conducted using Lineweaver–Burk double reciprocal plots to elucidate its inhibitory mechanisms. […] concentrations (0 μM, 3 μM, 6 μM, and 12 μM) of the indole derivative 4b in the presence of varying L-tyrosine concentrations (0.1, 0.2, 0.4, 0.6, 0.8, 1 mM) were employed for the kinetic analyses. The Lineweaver–Burk plots generated four distinct lines with different slopes corresponding to each concentration of the derivative. […] Specifically, the KM values were 1.515, 7.846, 15.740, and 23.586 mM at 0, 3, 6, and 12 μM of 4b, respectively.
The kinetic experiment was intended to elucidate the inhibitory behavior of compound 4b against tyrosinase. Four different doses of 4b (0, 3, 6, and 12 µM) were investigated to characterize its inhibition pattern with respect to tyrosinase activity. Various concentrations of L-tyrosine substrate ranging from 0.1 to 1 mM were employed across all experiments. The initial incubation time and reading period mirrored those outlined in the anti-tyrosinase inhibition method. The maximum initial velocity (V₀) was determined from the linear phase of absorbance measurements taken over 5 min following the addition of the enzyme solution. The inhibition mode was further delineated using a Lineweaver–Burk plot, where the reciprocal of velocities (1/V) was plotted against the reciprocal of substrate concentrations utilized.

In a further data set the test system is B16F10 melanoma cells. Particulars: cited from earlier work.
The subject of another data set is tyrosinase. Particulars: natural product; cited from earlier work.

Values joined by “and” are separate entries in the source; they are usually repeats but may differ in a detail not shown here. Equal values may be shown once. Some results are limits rather than exact numbers.

T1 sequence (C7FF04 1-392): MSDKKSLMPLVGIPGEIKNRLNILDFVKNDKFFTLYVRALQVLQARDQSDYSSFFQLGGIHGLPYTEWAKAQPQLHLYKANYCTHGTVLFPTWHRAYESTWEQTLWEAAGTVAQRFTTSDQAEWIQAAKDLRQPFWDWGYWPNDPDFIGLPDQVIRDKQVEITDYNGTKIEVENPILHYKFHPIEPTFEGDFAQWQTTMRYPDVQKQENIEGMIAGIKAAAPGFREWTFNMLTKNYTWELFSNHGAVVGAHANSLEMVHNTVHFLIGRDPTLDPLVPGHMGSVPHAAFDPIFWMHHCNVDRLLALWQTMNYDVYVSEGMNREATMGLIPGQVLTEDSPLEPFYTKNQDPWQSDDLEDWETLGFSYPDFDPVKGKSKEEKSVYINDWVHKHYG
T2 sequence (C7FF04 1-392): as above

As for `O=C1O[C@H]([C@@H](O)CO)C(O)=C1O` [Ascorbic acid, reference compound], the EC50 in data set [1] came to 37.9 ± 0.3 µM.
Consider `NC(=S)N/N=C/c1c[nH]c2ccccc12` [Compound 4a, (E)-2-((1H-indol-3-yl)methylene)hydrazine-1-carbothioamide], for which 7.9 ± 4.07 µM corresponded to half-maximal inhibition against mushroom tyrosinase (IC50). In addition, the “Main peak area (HPLC), stability in aqueous solution” value (from here on “Main peak area (HPLC), stability”) in data set [2] (0 day) worked out at 97.61%; in data set [2] (2 months), 91.27%; in data set [2] (2 day), 95.84%; in data set [2] (4 days), 95.76%.
Regarding `NC(=S)N/N=C/c1c[nH]c2ccc(F)cc12` [Compound 4b, (E)-2-((5-fluoro-1H-indol-3-yl)methylene)hydrazine-1-carbothioamide], the Inhibition mode entry on mTYR (Lineweaver–Burk plots, versus L-tyrosine) is “competitive”. Moreover, the results for the Ki at mTYR (at 6 μM of 4b) and at mTYR (at 12 μM of 4b) were 0.0568 µM and 0.0206 µM, respectively. For the same compound, the Vmax at mTYR (consistent across 0-12 μM 4b, L-tyrosine 0.1-1 mM) was 0.0135 mM/min. For the same compound, the EC50 in data set [1] was determined as 544.3 ± 1.5 µM. Moreover, the IC50 at mushroom tyrosinase was determined as 5.9 ± 2.47 µM. For the same compound, the “Main peak area (HPLC), stability” value in data set [2] (0 day) turned out to be 97.21%; in data set [2] (2 months), 91.69%; in data set [2] (2 day) it was 97.10%; in data set [2] (4 days), 97.07%.
Regarding `NC(=S)N/N=C/c1c[nH]c2ccc(Cl)cc12` [Compound 4c, (E)-2-((5-chloro-1H-indol-3-yl)methylene)hydrazine-1-carbothioamide], the melting point is 212 to 214 °C. In addition, the EC50 in data set [1] was 659.2 ± 0.5 µM. On mushroom tyrosinase, the IC50 amounted to 13.2 ± 1.68 µM. The “Main peak area (HPLC), stability” value in data set [2] (0 day) was 96.24%. The “Main peak area (HPLC), stability” value in data set [2] (2 months) was found to be 91.89%. Further, the “Main peak area (HPLC), stability” value in data set [2] (2 day) is listed as 96.04%. Moreover, the “Main peak area (HPLC), stability” value in data set [2] (4 days) was found to be 95.74%.
Consider `NC(=S)N/N=C/c1c[nH]c2ccc(Br)cc12` [Compound 4d, (E)-2-((5-bromo-1H-indol-3-yl)methylene)hydrazine-1-carbothioamide], for which the melting point was 215 to 217 °C. Besides, in data set [1], the EC50 turned out to be 769 ± 2.6 µM. On mushroom tyrosinase, this compound showed an IC50 of 14.9 ± 2.86 µM. For the same compound, in data set [2] (0 day), the “Main peak area (HPLC), stability” value amounted to 97.79%. Also, in data set [2] (2 months), the “Main peak area (HPLC), stability” value came to 91.28%. For the same compound, the “Main peak area (HPLC), stability” value in data set [2] (2 day) stood at 97.41%. Further, in data set [2] (4 days), the “Main peak area (HPLC), stability” value was found to be 96.80%.
Regarding `COc1ccc2[nH]cc(/C=N/NC(N)=S)c2c1` [Compound 4e, (E)-2-((5-methoxy-1H-indol-3-yl)methylene)hydrazine-1-carbothioamide], the EC50 in data set [1] is 603.4 ± 1 µM. This compound also displayed an IC50 against mushroom tyrosinase of 30.1 ± 1.77 µM. In addition, the “Main peak area (HPLC), stability” value in data set [2] (0 day) worked out at 98.00%; in data set [2] (2 months), 94.97%; in data set [2] (2 day) it was 97.87%; in data set [2] (4 days) it was 96.87%.
`CCn1cc(/C=N/NC(N)=S)c2ccccc21` [Compound 4f, (E)-2-((1-ethyl-1H-indol-3-yl)methylene)hydrazine-1-carbothioamide]: the melting point lay within 188 to 190 °C. The EC50 in data set [1] was greater than 1000 µM. Also, it took 127 ± 2.85 µM to reach half-maximal inhibition against mushroom tyrosinase (IC50). Moreover, the “Main peak area (HPLC), stability” value in data set [2] (0 day) came out at 97.80%. The “Main peak area (HPLC), stability” value in data set [2] (2 months) came to 92.18%. In addition, the “Main peak area (HPLC), stability” value in data set [2] (2 day) was 96.99%. The “Main peak area (HPLC), stability” value in data set [2] (4 days) was 96.45%.
With `Cn1cc(/C=N/NC(N)=S)c2ccccc21` [Compound 4g, (E)-2-((1-methyl-1H-indol-3-yl)methylene)hydrazine-1-carbothioamide], the melting point lay in the range of 199 to 201 °C. In data set [1], the EC50 was 493.5 ± 0.7 µM. Also, at mushroom tyrosinase, inhibition was half-maximal at 155.5 ± 1.07 µM (IC50). The “Main peak area (HPLC), stability” value in data set [2] (0 day) was 97.47%. The “Main peak area (HPLC), stability” value in data set [2] (2 months) was 95.20%. In addition, the “Main peak area (HPLC), stability” value in data set [2] (2 day) amounted to 94.12%. The “Main peak area (HPLC), stability” value in data set [2] (4 days) is 94.58%.
Consider `COc1ccc2c(c1)c(/C=N/NC(N)=S)cn2C` [Compound 4h, (E)-2-((5-methoxy-1-methyl-1H-indol-3-yl)methylene)hydrazine-1-carbothioamide], for which the melting point was 203 to 205 °C. The EC50 in data set [1] was found to be 340.2 ± 3.1 µM. Besides, the IC50 against mushroom tyrosinase was determined as 163 ± 3.81 µM. Besides, the “Main peak area (HPLC), stability” value in data set [2] (0 day) is 96.18%. In addition, the “Main peak area (HPLC), stability” value in data set [2] (2 months) came out at 90.15%. For the same compound, in data set [2] (2 day), the “Main peak area (HPLC), stability” value turned out to be 95.87%. Moreover, the “Main peak area (HPLC), stability” value in data set [2] (4 days) was 95.83%.
`Cn1cc(/C=N/NC(N)=S)c2cc(Br)ccc21` [Compound 4i, (E)-2-((5-bromo-1-methyl-1H-indol-3-yl)methylene)hydrazine-1-carbothioamide] registered a melting point of 220 to 222 °C. In addition, the EC50 in data set [1] was greater than 1000 µM. The same compound had an IC50 on mushroom tyrosinase of 46.3 ± 3.11 µM. For the same compound, the “Main peak area (HPLC), stability” value in data set [2] (0 day) is given as 90.17%. For the same compound, in data set [2] (2 months), the “Main peak area (HPLC), stability” value is 65% and 65.06%. For the same compound, the “Main peak area (HPLC), stability” value in data set [2] (2 day) amounted to 88.52%. Besides, the “Main peak area (HPLC), stability” value in data set [2] (4 days) turned out to be 88.22%.
As to `COC(=O)c1ccc2[nH]cc(/C=N/NC(N)=S)c2c1` [Compound 4j, Methyl(E)-3-((2-carbamothioylhydrazineylidene)methyl)-1H-indole-5-carboxylate], the melting point was 247 to 249 °C. In addition, in data set [1], the EC50 worked out at 275.7 ± 2.7 µM. Also, the IC50 on mushroom tyrosinase was determined as 103 ± 2.72 µM. In addition, the “Main peak area (HPLC), stability” value in data set [2] (0 day) is given as 97.37%. Also, in data set [2] (2 months), the “Main peak area (HPLC), stability” value was 90.86%. For the same compound, in data set [2] (2 day), the “Main peak area (HPLC), stability” value is 97.13%. Besides, the “Main peak area (HPLC), stability” value in data set [2] (4 days) is 96.75%.
On to `NC(=S)N/N=C/c1c[nH]c2ccc(O)cc12` [Compound 4k, (E)-2-((5-hydroxy-1H-indol-3-yl)methylene)hydrazine-1-carbothioamide], for which the melting point lay within 261 to 263 °C. Also, in data set [1], the EC50 turned out to be 24.6 ± 3.7 µM. In addition, the IC50 on mushroom tyrosinase is 43.3 ± 3.46 µM. For the same compound, the “Main peak area (HPLC), stability” value in data set [2] (0 day) stood at 96.00%. In data set [2] (2 months), the “Main peak area (HPLC), stability” value turned out to be 94.13%. Besides, in data set [2] (2 day), the “Main peak area (HPLC), stability” value was 95.85%. The “Main peak area (HPLC), stability” value in data set [2] (4 days) was found to be 95.32%.
Regarding `O=C(O)Cc1c[nH]c2ccccc12` [indole-3-acetic acid], the “Effect on B16F10 melanoma cells” value in the data set on B16F10 melanoma cells was “inhibitory effects”.
For `O=Cc1c[nH]c2ccccc12` [indole-3-carbaldehyde], the Tyrosinase inhibition activity entry with tyrosinase was “significant tyrosinase inhibition activity”.
For the compound `O=C(O)c1c[nH]c2ccccc12` [indole-3-carboxylic acid], the “Effect on B16F10 melanoma cells” value in the data set with B16F10 melanoma cells is listed as “inhibitory effects”.
As to `OCCc1c[nH]c2ccccc12` [indole-3-ethanol], the Tyrosinase inhibition activity result in the data set with tyrosinase is “significant tyrosinase inhibition activity”.
